# From ChEMBL document CHEMBL4406848, “Novel water soluble BODIPY compounds: Synthesis, photochemical, DNA interaction, topoisomerases inhibition and photodynamic activity properties” (Eur J Med Chem, 2019)
# Columns and labels:
# [1] = Induction of singlet oxygen generation in DMSO solution assessed as singlet oxygen quantum yield by measuring reduction in DPBF irradiated with 650 nanometer laser light; type: functional
# [2] = Induction of singlet oxygen generation in TBS solution assessed as singlet oxygen quantum yield by measuring reduction in ADMA irradiated with 650 nanometer laser light; type: functional
smiles,measurement,setting,value
CN(C)c1ccc2nc3ccc(=[N+](C)C)cc-3sc2c1,Activity,[1],0.57
same,Activity,[2],0.52
